Experimental data: patent publication US20060223996A1, “IL-12 modulatory compounds” (Synta Pharmaceuticals Corp., priority 2004, published 2006)

System: IL-12
Experiment: Human in vitro assay: inhibition of IL-12 production in IFNγ/LPS- or IFNγ/SAC-stimulated human PBMC or THP-1 cells (ELISA)
Format: cell-based
Settings: read-out: IC50 Range (representative in vitro IC50 data)
In short: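 Sandwich ELISA for IL-12 (p70, p40) on supernatants collected 18 h after stimulation gave IC50 values; MTS monitored viability. THP-1 cells: IFNγ 100 U/mL priming 22 h, SAC 0.025%. PBMC: IFNγ 30 U/mL for 22 h plus LPS 1 μg/mL, or IFNγ 100 U/mL plus SAC 0.01%. Final DMSO 0.25%.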

Row | Compound | IC50 [nM]
1 | O=C(Nc1cccc(-n2cccc2)c1)c1cc(OCCN2CCOCC2)nc(N2CCOCC2)n1 [Compound 285, 2-Morpholin-4-yl-6-(2-morpholin-4-yl-ethoxy)-pyrimidine-4-carboxylic acid (3-pyrrol-1-yl-phenyl)-amide] | < 1000
2 | Cc1cccc(NC(=O)c2cc(N(C)CCO)nc(N3CCOCC3)n2)c1 [Compound 298, 6-[(2-Hydroxy-ethyl)-methyl-amino]-2-morpholin-4-yl-pyrimidine-4-carboxylic acid m-tolylamide] | < 1000
3 | Cc1cccc(NC(=O)Nc2cc(OCCN3CCOCC3)nc(N3CCOCC3)n2)c1 [Compound 9, 1-[2-Morpholin-4-yl-6-(2-morpholin-4-yl-ethoxy)-pyrimidin-4-yl]-3-m-tolyl-urea] | < 1000
4 | Cc1[nH]c2ccc(NC(=O)c3cc(NCC(=O)N(C)C)nc(N4CCOCC4)n3)cc2c1C [Compound 112, 6-(Dimethylcarbamoylmethyl-amino)-2-morpholin-4-yl-pyrimidine-4-carboxylic acid (2,3-dimethyl-1H-indol-5-yl)-amide] | < 1000
5 | CCc1cccc(NC(=O)c2cc(OCCN3CCOCC3)nc(N3CCOCC3)n2)c1 [Compound 46, 2-Morpholin-4-yl-6-(2-morpholin-4-yl-ethoxy)-pyrimidine-4-carboxylic acid (3-ethyl-phenyl)-amide] | ≥ 1000
6 | CCc1c(C)[nH]c2ccc(NC(=O)c3cc(N4CCC5(CC4)OCCO5)nc(N4CCOCC4)n3)cc12 [Compound 180, 6-(1,4-Dioxa-8-aza-spiro[4.5]dec-8-yl)-2-morpholin-4-yl-pyrimidine-4-carboxylic acid (3-ethyl-2-methyl-1H-indol-5-yl)-amide] | < 1000
7 | Cc1cccc(NC(=O)Nc2cc(OCCc3ccccn3)nc(N3CCOCC3)n2)c1 [Compound 67, 1-[2-Morpholin-4-yl-6-(2-pyridin-2-yl-ethoxy)-pyrimidin-4-yl]-3-m-tolyl-urea] | < 1000
8 | Cc1cccc(NNC(=O)c2cc(N3CCOCC3)nc(OCCN3CCOCC3)n2)c1 [Compound 80, 6-Morpholin-4-yl-2-(2-morpholin-4-yl-ethoxy)-pyrimidine-4-carboxylic acid N′-m-tolyl-hydrazide] | < 1000
9 | Cc1[nH]c2ccc(NC(=O)c3cc(OCCC#N)nc(N4CCOCC4)n3)cc2c1C [Compound 250, 6-(2-cyanoethoxy)-N-(2,3-dimethyl-1H-indol-5-yl)-2-morpholinopyrimidine-4-carboxamide] | < 1000
10 | Cc1[nH]c2ccc(NC(=O)c3cc(N(C)CC(N)=O)nc(N4CCOCC4)n3)cc2c1C [Compound 117, 6-(Carbamoylmethyl-methyl-amino)-2-morpholin-4-yl-pyrimidine-4-carboxylic acid (2,3-dimethyl-1H-indol-5-yl)-amide] | < 1000
11 | Cc1[nH]c2ccc(NC(=O)c3cc(OCCO)nc(N4CCOCC4)n3)cc2c1C [Compound 307, 6-(2-Hydroxy-ethoxy)-2-morpholin-4-yl-pyrimidine-4-carboxylic acid (2,3-dimethyl-1H-indol-5-yl)-amide] | < 1000
12 | Nc1cccc(NC(=O)Nc2cc(OCCN3CCOCC3)nc(N3CCOCC3)n2)c1 [Compound 324, 1-(3-Amino-phenyl)-3-[2-morpholin-4-yl-6-(2-morpholin-4-yl-ethoxy)-pyrimidin-4-yl]-urea] | < 1000
13 | Cc1c(C)n(C)c2ccc(NC(=O)c3cc(OCCN4CCOCC4)nc(N4CCOCC4)n3)cc12 [Compound 24, 2-Morpholin-4-yl-6-(2-morpholin-4-yl-ethoxy)-pyrimidine-4-carboxylic acid (1,2,3-trimethyl-1H-indol-5-yl)-amide] | < 1000
14 | Cc1[nH]c2ccc(NC(=O)c3cc(N4CCOCC4)nc(N4CCOCC4)n3)cc2c1C [Compound 22, 2,6-Di-morpholin-4-yl-pyrimidine-4-carboxylic acid (2,3-dimethyl-1H-indol-5-yl)-amide] | < 1000
15 | O=C(Nc1cccc(I)c1)Nc1cc(OCCN2CCOCC2)nc(N2CCOCC2)n1 [Compound 130, 1-(3-Iodo-phenyl)-3-[2-morpholin-4-yl-6-(2-morpholin-4-yl-ethoxy)-pyrimidin-4-yl]-urea] | < 1000
16 | COCCN(C)c1cc(C(=O)Nc2cc(N(C)C)ccc2F)nc(N2CCOCC2)n1 [Compound 212, N-(5-(dimethylamino)-2-fluorophenyl)-6-((2-methoxyethyl)(methyl)amino)-2-morpholinopyrimidine-4-carboxamide] | ≥ 1000
17 | CCOC(=O)C1CCN(c2cc(C(=O)Nc3ccc4[nH]c(C)c(C)c4c3)nc(N3CCOCC3)c2)CC1 [Compound 176, 2′-(2,3-Dimethyl-1H-indol-5-ylcarbamoyl)-6′-morpholin-4-yl-3,4,5,6-tetrahydro-2H-[1,4′]bipyridinyl-4-carboxylic acid ethyl ester] | < 1000
18 | Cc1c(C)n(C)c2ccc(N(C)C(=O)c3cc(OCCN4CCOCC4)nc(N4CCOCC4)n3)cc12 [Compound 31, 2-Morpholin-4-yl-6-(2-morpholin-4-yl-ethoxy)-pyrimidine-4-carboxylic acid methyl-(1,2,3-trimethyl-1H-indol-5-yl)-amide] | ≥ 1000

Row | Compound | IC50 [nM]
19 | Cc1cc(C(=O)Nc2ccc3[nH]c(C)c(C)c3c2)nc(N2CCOCC2)n1 [Compound 253, N-(2,3-dimethyl-1H-indol-5-yl)-6-methyl-2-morpholinopyrimidine-4-carboxamide] | < 1000
20 | COCCN(C)c1cc(C(=O)Nc2cccc(-c3cnc4ccccc4n3)c2)nc(N2CCOCC2)n1 [Compound 242, 6-[(2-Methoxy-ethyl)-methyl-amino]-2-morpholin-4-yl-pyrimidine-4-carboxylic acid (3-quinoxalin-2-yl-phenyl)-amide] | ≥ 1000
21 | CCn1c2ccccc2c2ccc(NC(=O)c3cc(OCCc4ccccn4)nc(N4CCOCC4)n3)cc21 [Compound 33, 2-Morpholin-4-yl-6-(2-pyridin-2-yl-ethoxy)-pyrimidine-4-carboxylic acid (9-ethyl-9H-carbazol-2-yl)-amide] | ≥ 1000
22 | Cc1[nH]c2ccc(NC(=O)Nc3cc(OCCN4CCOCC4)nc(N4CCOCC4)n3)cc2c1C [Compound 323, 1-(2,3-Dimethyl-1H-indol-5-yl)-3-[2-morpholin-4-yl-6-(2-morpholin-4-yl-ethoxy)-pyrimidin-4-yl]-urea] | < 1000
23 | Cc1[nH]c2ccc(NC(=O)c3cc(CN4CCOCC4)nc(N4CCOCC4)n3)cc2c1C [Compound 259, N-(2,3-dimethyl-1H-indol-5-yl)-2-morpholino-6-(morpholinomethyl)pyrimidine-4-carboxamide] | < 1000
24 | COCCN(C)c1cc(C(=O)Nc2nc(C(C)(C)C)cs2)nc(N2CCOCC2)n1 [Compound 201, N-(4-tert-butylthiazol-2-yl)-6-((2-methoxyethyl)(methyl)amino)-2-morpholinopyrimidine-4-carboxamide] | ≥ 1000
25 | COCCOc1cc(C(=O)Nc2ccc3[nH]c(C)c(C)c3c2)nc(N2CCOCC2)n1 [Compound 301, 6-(2-Methoxy-ethoxy)-2-morpholin-4-yl-pyrimidine-4-carboxylic acid (2,3-dimethyl-1H-indol-5-yl)-amide] | < 1000
26 | O=C(Nc1cccc(-n2cccn2)c1)Nc1cc(OCCN2CCOCC2)nc(N2CCOCC2)n1 [Compound 327, 1-[2-Morpholin-4-yl-6-(2-morpholin-4-yl-ethoxy)-pyrimidin-4-yl]-3-(3-pyrazol-1-yl-phenyl)-urea] | ≥ 1000
27 | CCN(CC)c1cccc(NC(=O)c2cc(OCCN3CCOCC3)nc(N3CCOCC3)n2)c1 [Compound 300, 2-Morpholin-4-yl-6-(2-morpholin-4-yl-ethoxy)-pyrimidine-4-carboxylic acid (3-diethylamino-phenyl)-amide] | ≥ 1000
28 | CN(C)c1cccc(NC(=O)c2cc(N(C)CCO)nc(N3CCOCC3)n2)c1 [Compound 303, 6-[(2-Hydroxy-ethyl)-methyl-amino]-2-morpholin-4-yl-pyrimidine-4-carboxylic acid (3-dimethylamino-phenyl)-amide] | < 1000
29 | Cc1[nH]c2ccc(NC(=O)c3cc(N(CCO)CCO)nc(N4CCOCC4)n3)cc2c1C [Compound 91, 6-[Bis-(2-hydroxy-ethyl)-amino]-2-morpholin-4-yl-pyrimidine-4-carboxylic acid (2,3-dimethyl-1H-indol-5-yl)-amide] | < 1000
30 | O=C(Nc1cc(OCCN2CCOCC2)nc(N2CCOCC2)n1)Nc1cccc2ncccc12 [Compound 140, 1-[2-Morpholin-4-yl-6-(2-morpholin-4-yl-ethoxy)-pyrimidin-4-yl]-3-quinolin-5-yl-urea] | ≥ 1000
31 | CCc1c(C)[nH]c2ccc(NC(=O)Nc3cc(N4CCN(C(C)=O)CC4)nc(N4CCOCC4)n3)cc12 [Compound 266, 1-(6-(4-acetylpiperazin-1-yl)-2-morpholinopyrimidin-4-yl)-3-(3-ethyl-2-methyl-1H-indol-5-yl)urea] | < 1000
32 | Cc1cccc(NC(=O)Nc2nc(OCCc3ccccn3)cc(N3CCOCC3)n2)c1 [Compound 71, 1-[4-Morpholin-4-yl-6-(2-pyridin-2-yl-ethoxy)-pyrimidin-2-yl]-3-m-tolyl-urea] | ≥ 1000
33 | Cc1cc(C(=O)Nc2nc(OCCc3ccccn3)cc(N3CCOCC3)n2)no1 [Compound 77, 5-Methyl-isoxazole-3-carboxylic acid-[4-morpholin-4-yl-6-(2-pyridin-2-yl-ethoxy)-pyrimidin-2-yl]-amide] | ≥ 1000
34 | O=C(Nc1cc(OCCN2CCOCC2)nc(N2CCOCC2)n1)Nc1ccccc1Br [Compound 129, 1-(2-Bromo-phenyl)-3-[2-morpholin-4-yl-6-(2-morpholin-4-yl-ethoxy)-pyrimidin-4-yl]-urea] | ≥ 1000
35 | COCCN(C)c1cc(C(=O)Nc2ccc(Br)c(C)c2)nc(N2CCOCC2)n1 [Compound 230, 6-[(2-Methoxy-ethyl)-methyl-amino]-2-morpholin-4-yl-pyrimidine-4-carboxylic acid (4-bromo-3-methyl-phenyl)-amide] | ≥ 1000
